≈ marks a conversion by molar mass, not a printed value.
Tests used:
Assay type in all cases: functional
[1] = tested on: Mycobacterium tuberculosis; experiment: Antimycobacterial activity against INH-resistant Mycobacterium tuberculosis after 2 to 3 weeks by turbidity assay
[2] = tested on: Mycobacterium tuberculosis; experiment: Antimycobacterial activity against streptomycin-resistant Mycobacterium tuberculosis after 2 to 3 weeks by turbidity assay
[3] = tested on: Mycobacterium tuberculosis; experiment: Antimycobacterial activity against rifampicin-resistant Mycobacterium tuberculosis after 2 to 3 weeks by turbidity assay

SMILES	MIC [1] [µg/mL]	MIC [2] [µg/mL]	MIC [3] [µg/mL]
O=C(NCc1ccccn1)c1nc2cc(C(F)(F)F)cc([N+](=O)[O-])c2s1	0.12 (≈ 0.314 µM)	0.25 (≈ 0.654 µM)	0.25 (≈ 0.654 µM)
COCCN1CCN(C(=O)c2nc3cc(C(F)(F)F)c(C)c([N+](=O)[O-])c3s2)CC1	1 (≈ 2.31 µM)	1 (≈ 2.31 µM)	1 (≈ 2.31 µM)
Cc1c(C(F)(F)F)cc2nc(C(=O)N3CCCCC3)sc2c1[N+](=O)[O-]	0.25 (≈ 0.67 µM)	0.25 (≈ 0.67 µM)	0.5 (≈ 1.34 µM)
O=C(NCc1ccccn1)c1sc2c([N+](=O)[O-])cc(C(F)(F)F)cc2[n+]1[O-]	0.06 (≈ 0.151 µM)	0.06 (≈ 0.151 µM)	0.03 (≈ 0.0753 µM)

— ChEMBL document CHEMBL3739380, “Discovery of benzothiazoles as antimycobacterial agents: Synthesis, structure-activity relationships and binding studies with Mycobacterium tuberculosis decaprenylphosphoryl-β-D-ribose 2'-oxidase” (Bioorg Med Chem, 2015)
